Test results as given in PMC12123458, “Unraveling Small Molecule-Mediated Sirtuin 3 Activation at a Distinct Binding Site for Cardioprotective Therapies” (ACS Central Science, 2025).

Tests used:
[1] = system: H9c2 cells; test: Dox-induced cardiotoxicity model in H9c2 cells, MTT cell viability; assay type: cell-based; settings: for viability at 10 µM: Rattus norvegicus, H9c2, 10 µM pretreatment 24 h, then 1 µM Dox 24 h, MTT, Model (Dox) = Dox alone, read-out: Cardiomyocyte survival rate at 10 uM (%); for effect of co-treatment on the cardioprotective efficacy of SKLB-11A: Dox-treated H9c2 cells, cell viability
Procedure: H9c2 cardiomyocytes were cultured in high-glucose DMEM supplemented with 10% FBS and 1% penicillin/streptomycin under a 5% CO2 atmosphere at 37 °C. Cells were seeded at 5 × 10^4 cells/mL in 96-well plates and treated with 1 μM Dox for 24 h. After Dox treatment, cell viability was quantified via MTT assay; 3-(4,5-dimethythiazol-2-yl)-2,5-diphenyltetrazolium bromide (MTT, 5 mg/mL) was applied for 4 h, followed by DMSO dissolution of formazan crystals. Additionally, cells were pretreated with 10 μM SKLB-11A for 24 h prior to 1 μM Dox exposure, and viability was similarly assessed using MTT.

[2] = molecular target: T1, SIRT3 (Homo sapiens, UniProt Q9NTG7); test: Fluor de Lys (FDL) fluorimetric SIRT3 deacetylase activity assay; assay type: biochemical; settings: 100 µM, FDL deacetylation assay, compared to the control group, mean ± SD; for activity at 100 µM: 0.5 h, read-out: % effect @ 100 µM of SIRT3
T1 construct: purchased Enzo Life Sciences BML-AK557-0001
T1 sequence (Q9NTG7 1-399): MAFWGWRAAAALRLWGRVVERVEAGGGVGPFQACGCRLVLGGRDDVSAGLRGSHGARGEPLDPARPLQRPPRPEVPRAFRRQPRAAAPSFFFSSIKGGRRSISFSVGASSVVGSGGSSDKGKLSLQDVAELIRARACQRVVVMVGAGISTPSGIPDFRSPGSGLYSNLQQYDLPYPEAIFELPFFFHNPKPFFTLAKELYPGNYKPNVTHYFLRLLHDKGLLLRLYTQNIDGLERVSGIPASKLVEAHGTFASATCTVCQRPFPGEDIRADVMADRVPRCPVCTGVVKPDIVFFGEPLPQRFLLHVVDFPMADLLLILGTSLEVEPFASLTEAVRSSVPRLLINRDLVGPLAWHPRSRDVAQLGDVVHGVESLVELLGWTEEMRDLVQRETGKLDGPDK
Procedure: The SIRT3 activity was assessed using the Enzo Life Sciences kit (BML-AK557-0001) per the protocol provided. A 10 μM fluoro-acetylated p53 peptide and 500 μM NAD^+ were added to SIRT3 assay buffer, incubated with test compounds and 0.5 μg recombinant SIRT3 at 37 °C for 30 min. In the mass spectrometry (MS) assay, 5 μM hSirt3 was reacted with 0.25 mM peptide and 1.25 mM NAD^+, with or without 10 μM SKLB-11A in 2% DMSO, at 37 °C. Controls included 2% DMSO without SKLB-11A. The reaction was halted at defined intervals using 5 mM nicotinamide, and the mixture then underwent filtration and subjected to nano LC-MS/MS analysis. Acetylated Peptide: MnSOD-K122 ([…]-Ac).

[3] = system: LC3, p62, PINK1, Parkin in H9c2 cells; test: Autophagy/mitophagy markers in H9c2 cells (Western blot, immunofluorescence); assay type: cell-based; settings: 24 h
Procedure: Proteomic analysis was conducted on H9c2 cells and murine cardiac tissues. Protein lysates were resolved via SDS-PAGE and transferred onto PVDF membranes. […] After washing, membranes were probed with secondary antibodies for 1 h at room temperature. Detection was facilitated by an ECL kit, with densitometry performed using ImageJ software to quantify protein expression, normalized against controls. The antibodies employed included: anti-SIRT3 (2627, Cell Signaling Technology), anti-acetylated lysine (9441, CST), anti-Ac.K68-MnSOD2 (ab137037, Abcam), anti-Ac.K122-MnSOD2 (ab214675, Abcam), anti-MnSOD2 (13141, CST), anti-LC3B (3868, CST), anti-p62 (8025, CST), anti-PINK1 (6946, CST), anti-Parkin (4211, CST), and anti-β-actin (ab8226, Abcam).

SMILES	viability at 10 µM [1] [%]	activity at 100 µM [2] [%]	% effect @ 100 µM of SIRT3 [2]	effect of co-treatment on the cardioprotective efficacy of SKLB-11A [1]	LC3-II and p62 (autophagic flux) [3]
COc1cccc(-n2c(N)c(C#N)c3nc4ccccc4nc32)c1 [SKLB-4D, 2-amino-1-(3-methoxyphenyl)-1H-pyrrolo[2,3-b]quinoxaline-3-carbonitrile]	64.4 ± 3.28	103.1 ± 1.02	–	–	–
CCCCCNC(=O)c1c(N)n(Cc2ccccc2)c2nc3ccccc3nc12 [SKLB-11N, 2-amino-1-benzyl-N-pentyl-1H-pyrrolo[2,3-b]quinoxaline-3-carboxamide]	66.3 ± 4.52	119 ± 3.3	–	–	–
N#Cc1c(N)n(-c2ccccc2F)c2nc3ccccc3nc12 [SKLB-4F, 2-amino-1-(2-fluorophenyl)-1H-pyrrolo[2,3-b]quinoxaline-3-carbonitrile]	65.17 ± 0.38	106 ± 1.96	–	–	–
CCNC(=O)c1c(N)n(Cc2ccc(F)cc2)c2nc3ccccc3nc12 [SKLB-11K, 2-amino-N-ethyl-1-(4-fluorobenzyl)-1H-pyrrolo[2,3-b]quinoxaline-3-carboxamide]	71.5 ± 2.09	144.3 ± 0.82	–	–	–
COc1ccc(-n2c(N)c(C#N)c3nc4ccccc4nc32)cc1 [SKLB-4E, 2-amino-1-(4-methoxyphenyl)-1H-pyrrolo[2,3-b]quinoxaline-3-carbonitrile]	65.9 ± 2.41	110.4 ± 0.95	–	–	–
CCCCCNC(=O)c1c(N)n(Cc2ccc(Br)cc2)c2nc3ccccc3nc12 [SKLB-11O, 2-amino-1-(4-bromobenzyl)-N-pentyl-1H-pyrrolo[2,3-b]quinoxaline-3-carboxamide]	69.2 ± 1.35	126 ± 1.32	–	–	–
CC(C)(C)OC(=O)Nc1c(C(=O)O)c2nc3ccccc3nc2n1Cc1ccc(F)cc1 [SKLB-7A, 2-((tert-butoxycarbonyl)amino)-1-(4-fluorobenzyl)-1H-pyrrolo[2,3-b]quinoxaline-3-carboxylic acid]	66.1 ± 0.8	109.3 ± 0.71	significantly reduced SIRT3 deacetylation activity	–	–
CCCCCNC(=O)c1c(N)n(Cc2cccc(Cl)c2)c2nc3ccccc3nc12 [SKLB-11Q, 2-amino-1-(3-chlorobenzyl)-N-pentyl-1H-pyrrolo[2,3-b]quinoxaline-3-carboxamide]	66.5 ± 1.19	118 ± 0.63	–	–	–
COc1cc(-n2c(=S)[nH]c3ccccc3c2=O)c(Cl)cc1Cl [Mdivi-1, reference compound]	–	–	–	attenuated the cardioprotective effects of SKLB-11A	–
c1cncc(-c2cn[nH]n2)c1 [3-TYP, reference compound]	–	–	–	attenuated the efficacy of SKLB-11A	reduced LC3-II localization
N#Cc1c(N)n(Cc2ccc(F)cc2)c2nc3ccccc3nc12 [SKLB-4B, 2-amino-1-(4-fluorobenzyl)-1H-pyrrolo[2,3-b]quinoxaline-3-carbonitrile]	70.8 ± 3.03	130.6 ± 0.36	significant increase in SIRT3 deacetylation activity	–	–
CC(C)(C)OC(=O)c1c(N)n(Cc2ccc(F)cc2)c2nc3ccccc3nc12 [SKLB-11D, Tert-butyl 2-amino-1-(4-fluorobenzyl)-1H-pyrrolo[2,3-b]quinoxaline-3-carboxylate]	74.3 ± 1.7	148 ± 3.07	maintained or enhanced the activity	–	–
N#Cc1c(N)n(Cc2ccc(Br)cc2)c2nc3ccccc3nc12 [SKLB-4C, 2-amino-1-(4-bromobenzyl)-1H-pyrrolo[2,3-b]quinoxaline-3-carbonitrile]	68.25 ± 0.51	126.4 ± 0.81	–	–	–
CC(C)OC(=O)c1c(N)n(Cc2ccc(F)cc2)c2nc3ccccc3nc12 [SKLB-11C, Isopropyl 2-amino-1-(4-fluorobenzyl)-1H-pyrrolo[2,3-b]quinoxaline-3-carboxylate]	70.2 ± 1.89	124.2 ± 0.84	–	–	–
NC(=O)c1c(N)n(Cc2ccc(F)cc2)c2nc3ccccc3nc12 [SKLB-11I, 2-amino-1-(4-fluorobenzyl)-1H-pyrrolo[2,3-b]quinoxaline-3-carboxamide]	70.8 ± 3.76	135 ± 2.43	–	–	–
Nc1c(C(=O)Oc2ccccc2)c2nc3ccccc3nc2n1Cc1ccc(F)cc1 [SKLB-11E, Phenyl 2-amino-1-(4-fluorobenzyl)-1H-pyrrolo[2,3-b]quinoxaline-3-carboxylate]	71.3 ± 4.34	130.6 ± 1.27	–	–	–
COc1ccc(Cn2c(N)c(C#N)c3nc4ccccc4nc32)cc1 [SKLB-4A, 2-amino-1-(4-methoxybenzyl)-1H-pyrrolo[2,3-b]quinoxaline-3-carbonitrile]	65.3 ± 4.54	118.2 ± 0.79	–	–	–
CNC(=O)c1c(N)n(Cc2ccc(F)cc2)c2nc3ccccc3nc12 [SKLB-11J, 2-amino-1-(4-fluorobenzyl)-N-methyl-1H-pyrrolo[2,3-b]quinoxaline-3-carboxamide]	72.4 ± 2.21	150 ± 1.75	–	–	–
Cc1ccc(Cn2c(N)c(C(=O)OC(C)(C)C)c3nc4ccccc4nc32)cc1 [SKLB-11G, Tert-butyl 2-amino-1-(4-methylbenzyl)-1H-pyrrolo[2,3-b]quinoxaline-3-carboxylate]	63.93 ± 0.62	107 ± 1.42	–	–	–
CCCCNC(=O)c1c(N)n(Cc2ccc(F)cc2)c2nc3ccccc3nc12 [SKLB-11L, 2-amino-N-butyl-1-(4-fluorobenzyl)-1H-pyrrolo[2,3-b]quinoxaline-3-carboxamide]	67.1 ± 1.6	123.6 ± 0.95	–	–	–
CC(C)(C)OC(=O)c1c(N)n(Cc2ccccc2)c2nc3ccccc3nc12 [SKLB-11F, Tert-butyl 2-amino-1-benzyl-1H-pyrrolo[2,3-b]quinoxaline-3-carboxylate]	69 ± 1.22	122.7 ± 0.59	–	–	–
Nc1c(C(=O)NC2CC2)c2nc3ccccc3nc2n1Cc1ccc(F)cc1 [SKLB-11M, 2-amino-N-cyclopropyl-1-(4-fluorobenzyl)-1H-pyrrolo[2,3-b]quinoxaline-3-carboxamide]	64.5 ± 0.87	104 ± 1.75	–	–	–
Nc1c(C(=O)O)c2nc3ccccc3nc2n1Cc1ccc(F)cc1 [SKLB-5A, 2-amino-1-(4-fluorobenzyl)-1H-pyrrolo[2,3-b]quinoxaline-3-carboxylic acid]	75.5 ± 2.69	154 ± 2.69	–	–	–
COc1ccc(Cn2c(N)c(C(=O)OC(C)(C)C)c3nc4ccccc4nc32)cc1 [SKLB-11H, Tert-butyl 2-amino-1-(4-methoxybenzyl)-1H-pyrrolo[2,3-b]quinoxaline-3-carboxylate]	68.7 ± 4.61	125.7 ± 0.91	–	–	–
CCCCCNC(=O)c1c(N)n(Cc2cccc(Br)c2)c2nc3ccccc3nc12 [SKLB-11P, 2-amino-1-(3-bromobenzyl)-N-pentyl-1H-pyrrolo[2,3-b]quinoxaline-3-carboxamide]	65.8 ± 4.18	116.2 ± 0.57	–	–	–
COc1cccc2c1C(=O)c1c(O)c3c(c(O)c1C2=O)C[C@@](O)(C(=O)CO)C[C@@H]3O[C@H]1C[C@H](N)[C@H](O)[C@H](C)O1 [Dox, doxorubicin, reference compound]	61.93 ± 0.51	–	–	–	–
CCOC(=O)c1c(N)n(Cc2ccc(F)cc2)c2nc3ccccc3nc12 [SKLB-11B, Ethyl 2-amino-1-(4-fluorobenzyl)-1H-pyrrolo[2,3-b]quinoxaline-3-carboxylate]	77 ± 1.96	167.4 ± 1.13	maintained or enhanced the activity	–	–
